Measurements published in patent US20120035050A1, “Synergistic Combinations Of Active Ingredients” (BAYER CROPSCIENCE AG, priority 2009, published 2012).
Where two headings read alike, the source gives them in different places.

Assays:
Assay type in all cases: in vivo
[1] = test system: larvae of the mustard beetle (Phaedon cochleariae); assay: Phaedon cochleariae larvae test; conditions: for Kill in % after 2^d: sprayed cabbage leaves
[2] = test system: green peach aphid (Myzus persicae); assay: Myzus persicae test; conditions: 24 h, read-out: Kill in % after 1^d
Procedure: (§1) • Solvents: 78 parts by weight of acetone 1.5 parts by weight of dimethylformamide • Emulsifier: 0.5 part by weight of alkylaryl polyglycol ether
(§2) To produce a suitable preparation of active compound, 1 part by weight of active compound is mixed with the stated amount of solvent and emulsifier, and the concentrate is diluted with emulsifier-containing water to the desired concentration.
Cabbage leaves (Brassica oleracea) which are heavily infested by the green peach aphid (Myzus persicae) are treated by spraying with the active compound preparation of the desired concentration.
After the desired period of time, the kill in % is determined 100% means that all of the aphids have been killed; 0% means that none of the aphids have been killed. The kill rates determined are entered into Colby's formula (see above).

[3] = test system: greenhouse red spider mite (Tetranychus urticae); assay: Tetranychus urticae test (OP-resistant/spray treatment)
Procedure: as §1, §2
Discs of bean leaves (Phaseolus vulgaris) which are infested by all stages of the greenhouse red spider mite (Tetranychus urticae) are sprayed with an active compound preparation of the desired concentration.
After the desired period of time, the effect in % is determined. 100% means that all of the spider mites have been killed; 0% means that none of the spider mites have been killed.

[4] = test system: larvae of the armyworm (Spodoptera frugiperda); assay: Spodoptera frugiperda test; conditions: sprayed cabbage leaves
[5] = Phaedon cochleariae, 144 h, single active compound, 200 g/ha, 6 d, read-out: Kill in % after 6 d
[6] = 200 g/ha, spray on infested cabbage leaves, after 1 d
[7] = Tetranychus urticae, 144 h, single active compound, 100 g/ha, 6 d, read-out: Kill in % after 6 d
[8] = Phaedon cochleariae, 144 h, single active compound, 20 g/ha, 6 d, read-out: Kill in % after 6 d
[9] = Phaedon cochleariae, 144 h, single active compound, 100 g/ha, 6 d, read-out: Kill in % after 6 d
[10] = Tetranychus urticae, 144 h, read-out: Kill in % after 6 d
[11] = single active compound, 100 g/ha
[12] = single active compound, 500 g/ha, 6 d
[13] = single active compound, 200 g/ha

Compound	pest or weed control at 200 g/ha [1, 5] [%]	pest or weed control at 200 g/ha ([2]; in Brassica oleracea) [%]	pest or weed control at 200 g/ha [3, 10] [%]	other results
Cc1nn(C)c(F)c1C(=O)Nc1ccccc1C(C)CC(C)C (stereo not drawn) [N-[2-(1,3-dimethylbutyl)phenyl]-5-fluoro-1,3-dimethyl-1H-pyrazole-4-carboxamide]	0			pest or weed control at 200 g/ha [2, 6]: 0%
CO/C=C(/C(=O)OC)c1ccccc1Oc1cc(Oc2ccccc2C#N)ncn1 [azoxystrobin]				pest or weed control at 500 g/ha ([1]; Phaedon cochleariae, 144 h, single active compound, 500 g/ha, 6 d, read-out: Kill in % after 6 d): 0%
O=C1C=C(N(CCF)Cc2ccc(Cl)nc2)CO1 [compound (I-4), 4-{[(6-chloropyrid-3-yl)methyl](2-fluoroethyl)amino}furan-2(5H)-one]				pest or weed control at 4 g/ha ([3]; Tetranychus urticae, 144 h, single active compound, 4 g/ha, 6 d, read-out: Kill in % after 6 d): 50%; pest or weed control at 100 g/ha [3, 7]: 80%; Kill in % after 2^d ([1]; 20 g/ha): 0%; pest or weed control at 20 g/ha [1, 8]: 0%; pest or weed control at 100 g/ha [1, 9]: 17%; pest or weed control at 0.8 g/ha ([2]; 0.8 g/ha, spray on infested cabbage leaves, after 1 d): 50%
O=C1C=C(N(Cc2ccc(Cl)nc2)CC(F)F)CO1 [compound (I-5), 4-{[(6-chloropyrid-3-yl)methyl](2,2-difluoroethyl)amino}furan-2(5H)-one]				pest or weed control at 100 g/ha [3, 10]: 0%; Kill in % after 2 d [3, 11]: 20%; Kill in % after 2^d ([1]; 20 g/ha): 0%; pest or weed control at 20 g/ha [1, 8]: 0%; pest or weed control at 100 g/ha [1, 9]: 50%; pest or weed control at 0.8 g/ha ([2]; in Brassica oleracea): 50%
CN(Cc1cnc(Cl)c(F)c1)C1=CC(=O)OC1 [compound (I-6), 4-{[(6-chloro-5-fluorpyrid-3-yl)methyl](methyl)amino}furan-2(5H)-one]				pest or weed control at 100 g/ha [3, 7]: 0%; Kill in % after 2 d [3, 11]: 0%; Kill in % after 6^d ([4]; 100 g/ha): 0%; Kill in % after 2^d ([1]; 100 g/ha): 33%; pest or weed control at 20 g/ha [1, 8]: 0%; pest or weed control at 100 g/ha [1, 9]: 67%
CSC1=N[C@@](C)(c2ccccc2)C(=O)N1Nc1ccccc1 [fenamidone]		0		Kill in % after 2^d ([1]; 200 g/ha): 0%
N#Cc1c[nH]cc1-c1cccc2c1OC(F)(F)O2 [fludioxonil]	17	0	0	
O=C(NCc1ncc(C(F)(F)F)cc1Cl)c1c(Cl)cccc1Cl [fluopicolide]				Kill in % after 6 d [3, 12]: 0%; Kill in % after 6 d [1, 12]: 0%
O=C(NCCc1ncc(C(F)(F)F)cc1Cl)c1ccccc1C(F)(F)F [fluopyram, N-[2-[3-chloro-5-(trifluoromethyl)-2-pyridinyl]ethyl]-2-(trifluoromethyl)benzamide]	0	0	0	
CC(C)NC(=O)N1CC(=O)N(c2cc(Cl)cc(Cl)c2)C1=O [iprodione]	0	0	50	
Cc1ccc(C(C)NC(=O)[C@@H](NC(=O)OC(C)C)C(C)C)cc1 (stereo partly drawn) [iprovalicarb]	0		0	
N#Cc1ccccc1NC(=O)c1snc(Cl)c1Cl [isotianil]	0	0	0	
COCC(=O)N(c1c(C)cccc1C)C(C)C(=O)OC (stereo not drawn) [metalaxyl]	0	0	0	
CCCOC(=O)NCCCN(C)C [propamocarb]				pest or weed control at 200 g/ha ([3]; Tetranychus urticae, 144 h, single active compound, 200 g/ha, 6 d, read-out: Kill in % after 6 d): 0%; Kill in % after 2 d [3, 13]: 0%; pest or weed control at 200 g/ha [2, 6]: 0%
OC(Cc1ccccc1Cl)(Cn1ncnc1S)C1(Cl)CC1 (stereo not drawn) [prothioconazole]		0	0	Kill in % after 2^d ([1]; 200 g/ha): 0%
CC(C)(C)C(O)(CCc1ccc(Cl)cc1)Cn1cncn1 (stereo not drawn) [tebuconazole]	0	0	70	
Cc1ccc(N(SC(F)(Cl)Cl)S(=O)(=O)N(C)C)cc1 [tolylfluanid]	17	0		Kill in % after 6^d ([4]; 200 g/ha): 0%
CC(C)(C)C(O)C(Oc1ccc(Cl)cc1)n1cncn1 (stereo not drawn) [triadimenol]	0	0	0	Kill in % after 2 d [3, 13]: 0%
CO/N=C(/C(=O)OC)c1ccccc1CO/N=C(\C)c1cccc(C(F)(F)F)c1 [trifloxystrobin]	33			Kill in % after 2^d ([1]; 200 g/ha): 0%
